Values quoted from earlier work as cited in patent US6054466A, “Inhibitors of farnesyl-protein transferase” (Merck & Co., Inc., priority 1998, dated 2000).

Key:
[1] = system: farnesyl-protein transferase; conditions: via HMG-CoA reductase inhibition
[2] = system: Ras processing; conditions: by inhibiting the rate-limiting step in the isoprenoid biosynthetic pathway

Structure (SMILES) | Indirect inhibition of farnesyl-protein transferase in vivo [1] | Block of Ras processing in cells [2]
CC[C@H](C)C(=O)O[C@H]1CCC=C2C=C[C@H](C)[C@H](CC[C@@H]3C[C@@H](O)CC(=O)O3)[C@H]21 [compactin] | Indirect inhibition | –
CC[C@H](C)C(=O)O[C@H]1C[C@@H](C)C=C2C=C[C@H](C)[C@H](CC[C@@H]3C[C@@H](O)CC(=O)O3)[C@H]21 [lovastatin] | Indirect inhibition | blocks Ras processing in cells
